Usually IC50 stands for the point on the concentration scale where inhibition reaches its midpoint. A higher IC50 goes with lower potency.

The target in one experiment is T1, human P2X4 (Homo sapiens, UniProt Q99571).
T1 sequence (Q99571 1-388): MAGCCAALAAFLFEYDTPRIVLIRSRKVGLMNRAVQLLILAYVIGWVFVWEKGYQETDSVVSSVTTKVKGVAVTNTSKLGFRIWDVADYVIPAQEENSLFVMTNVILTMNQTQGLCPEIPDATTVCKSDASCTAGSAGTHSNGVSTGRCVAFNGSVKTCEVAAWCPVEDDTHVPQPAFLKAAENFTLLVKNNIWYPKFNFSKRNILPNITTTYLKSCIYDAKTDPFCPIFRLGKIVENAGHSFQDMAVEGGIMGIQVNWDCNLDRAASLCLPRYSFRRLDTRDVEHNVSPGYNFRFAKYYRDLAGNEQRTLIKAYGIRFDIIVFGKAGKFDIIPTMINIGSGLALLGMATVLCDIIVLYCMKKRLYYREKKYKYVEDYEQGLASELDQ
Nature of the experiment: Human P2X4 HEK Cell FLIPR Assay. The format is cell-based. On the set-up: expressed in transfected cells; host or cells: HEK293. The conditions noted are these: HEK293 cells, agonist Bz-ATP at EC80. As for the experimental part:
HEK293 cells stably expressing human P2X4 were plated in poly-D-lysine-coated 384-well plates at a seeding density of 30000 cells/well and incubated overnight. P2X4 function was assessed by measuring intracellular calcium changes using the calcium-chelating dye Fluo8-AM (Molecular Devices) on a fluorescent imaging plate reader (FLEX/FLIPR station; Molecular Devices). On the day of the assay, the medium was removed and the cells were incubated for 30 min at 37° C. and 5% CO2 in 30 μL of dye buffer (Hank's balanced salt solution, 10 mM HEPES, 1.8 mM CaCl2, 1 mM MgCl2, 2 mM probenecid, 5 mM D-glucose monohydrate, 5 μM Fluo8-AM, pH=7.4). Compounds diluted in probenecid buffer (Hank's balanced salt solution, 10 mM HEPES, 1.8 mM CaCl2, 1 mM MgCl2, 2 mM probenecid, 5 mM D-glucose monohydrate, pH=7.4) were added in a volume of 10 μL and allowed to incubate for 30 min at room temperature. The final assay DMSO concentration was 0.5%. The agonist, Bz-ATP (Tocris), was added in a volume of 10 μL at a concentration representing the EC80 value. The EC80 value of Bz-ATP was determined each assay day prior to compound profiling. The fluorescence was measured for an interval of 120 sec at 2 sec intervals. The excitation and emission wavelengths used to monitor fluorescence were 470-495 nm and 515-575 nm, respectively. The data was analyzed based on the increase in peak relative fluorescence units (RFU) compared to the basal fluorescence and the data was normalized to the agonist control. The compounds were tested in triplicates per plate and mean values were plotted in Excel XL-Fit to determine IC50 values, percentage of maximal inhibition and the Hill coefficients.
`NS(=O)(=O)c1cc(NC(=O)Cc2ccccc2Cl)ccc1-n1cc(C(F)(F)F)cn1` [Example 19, 2-(2-Chlorophenyl)-N-{3-sulfamoyl-4-[4-(trifluoromethyl)-1H-pyrazol-1-yl]phenyl}acetamide] showed an IC50 of 47 nM. This lies in the double-digit nanomolar range.
Molecule `NS(=O)(=O)c1cc(NC(=O)Cc2ccccc2Cl)ccc1-n1cc(F)cn1` [Example 26, 2-(2-Chlorophenyl)-N-[4-(4-fluoro-1H-pyrazol-1-yl)-3-sulfamoylphenyl]acetamide] had an IC50 of 27 nM.
Still for that read-out and setting: with `N#Cc1cnn(-c2ccc(NC(=O)Cc3ccccc3Cl)cc2S(N)(=O)=O)c1` [Example 39, 2-(2-Chlorophenyl)-N-[4-(4-cyano-1H-pyrazol-1-yl)-3-sulfamoylphenyl]acetamide] the figure was 32 nM; with `NS(=O)(=O)c1cc(NC(=O)Cc2ccccc2Cl)ccc1-c1cnn(C(F)F)c1` [Example 326, 2-(2-Chlorophenyl)-N-{4-[1-(difluoromethyl)-1H-pyrazol-4-yl]-3-sulfamoylphenyl}acetamide], 17 nM.
`NS(=O)(=O)c1cc(NC(=O)Cc2ccccc2Cl)cnc1-n1cc(C(F)(F)F)cn1` [Example 380, 2-(2-Chlorophenyl)-N-{5-sulfamoyl-6-[4-(trifluoromethyl)-1H-pyrazol-1-yl]pyridin-3-yl}acetamide] showed an IC50 of 299 nM. Compared with the last molecule, the IC50 is about 18-fold higher.

In another experiment the test system is Sprague Dawley (SD) rats. Briefly: tMCAO-Induced Ischemic Stroke Model in Rats. The format is in vivo, rat. The settings on record: per os twice a day for seven days, from day 8 on, p<5% vs vehicle treated tMCAO-group. The protocol: Transient middle cerebral artery occlusion (tMCAO) was performed in approximately 3 months old male Sprague Dawley (SD) rats according to the method described by Schmid-Elsaesser et al. [Stroke. 1998; 29(10):2162-2170]. In particular, the right common carotid artery (CCA) was exposed through a midline neck incision and carefully dissected free from surrounding nerves and fascia—from its bifurcation to the base of the skull. […] The ECA was dissected further distally and coagulated along with the terminal lingual and maxillary artery branches, just before their bifurcation. The internal carotid artery (ICA) was isolated and carefully separated from the adjacent vagus nerve, and the pterygopalatine artery was ligated close to its origin with a 5-0 nylon suture. Thereafter, a 4-0 silk suture was tied loosely around the mobilized ECA stump, and a 4 cm length of Doccol 4-0 monofilament suture (coated with silicone) was inserted through the proximal ECA into the ICA and thence into the circle of Willis, effectively occluded the MCA. The surgical wound was closed and the animals were returned to their cages for recovery from anesthesia. Two hours after occlusion, rats were re-anesthetized and the monofilament was withdrawn to allow reperfusion. The wound was closed again and rats were returned to their cages.
Four groups of rats with 12-15 rats per group were included into the study. […]
Turning to `N#Cc1cnn(-c2ccc(NC(=O)Cc3ccccc3Cl)cc2S(N)(=O)=O)c1` [Example 39, 2-(2-Chlorophenyl)-N-[4-(4-cyano-1H-pyrazol-1-yl)-3-sulfamoylphenyl]acetamide], the “modified neurologic severity score (mNSS)” value is “significant smaller mNSS than the vehicle treated tMCAO-group”.

The values are drawn from patent US20210179577A1, “AROMATIC SULFONAMIDE DERIVATIVES FOR THE TREATMENT OF ISCHEMIC STROKE” (Bayer Aktiengesellschaft, priority 2017, published 2021).
